Laboratory results taken from PubChem BioAssay AID1963985 (Molecular Pharmacology Branch, DTP, NCI, 2024).
Blank lines part the entries; values can stand above or below the compound they belong to.

Test system: 252836-082-R-J2-PDC tumor spheroids, viability
Test: Anticancer human tumor 252836-082-R-J2-PDC patient-derived head and neck squamous cell carcinoma cell line growth inhibition [PI3K]
Settings: spheroids with HUVEC and MSC; for IC50: curve of first compound; for viability, T/C: stronger effect = lower value
Summary of the method: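 High-throughput combination screen: PI3K inhibitors crossed with targeted small molecules on complex spheroids of tumor cells, HUVEC and MSCs at 37 degrees C, 5% CO2. Top concentration was at or near clinical Cmax (otherwise 10 microM), with half-log decrements.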

[1] = second compound 0.00316 µM, first compound 0.0316 µM
[2] = second compound 0.00316 µM, first compound 0.1 µM
[3] = second compound 0.00316 µM, first compound 0.316 µM
[4] = second compound 0.00316 µM, first compound 1 µM
[5] = second compound 0.00316 µM, first compound 3.16 µM
[6] = second compound 0.00316 µM, first compound 10 µM
[7] = second compound 0.01 µM, first compound 0.0316 µM
[8] = second compound 0.01 µM, first compound 0.1 µM
[9] = second compound 0.01 µM, first compound 0.316 µM
[10] = second compound 0.01 µM, first compound 1 µM
[11] = second compound 0.01 µM, first compound 3.16 µM
[12] = second compound 0.01 µM, first compound 10 µM
[13] = second compound 0.0316 µM, first compound 0.0316 µM
[14] = second compound 0.0316 µM, first compound 0.1 µM
[15] = second compound 0.0316 µM, first compound 0.316 µM
[16] = second compound 0.0316 µM, first compound 1 µM
[17] = second compound 0.0316 µM, first compound 3.16 µM
[18] = second compound 0.0316 µM, first compound 10 µM
[19] = second compound 0.1 µM, first compound 0.0316 µM
[20] = second compound 0.1 µM, first compound 0.1 µM
[21] = second compound 0.1 µM, first compound 0.316 µM
[22] = second compound 0.1 µM, first compound 1 µM
[23] = second compound 0.1 µM, first compound 3.16 µM
[24] = second compound 0.1 µM, first compound 10 µM
[25] = second compound 0.316 µM, first compound 0.0316 µM
[26] = second compound 0.316 µM, first compound 0.1 µM
[27] = second compound 0.316 µM, first compound 0.316 µM
[28] = second compound 0.316 µM, first compound 1 µM
[29] = second compound 0.316 µM, first compound 3.16 µM
[30] = second compound 0.316 µM, first compound 10 µM
[31] = second compound 1 µM, first compound 0.0316 µM
[32] = second compound 1 µM, first compound 0.1 µM
[33] = second compound 1 µM, first compound 0.316 µM
[34] = second compound 1 µM, first compound 1 µM
[35] = second compound 1 µM, first compound 3.16 µM
[36] = second compound 1 µM, first compound 10 µM
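Note: spheroids exposed to agents for seven days before readout.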
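Throughout, for viability, T/C: percent of vehicle DMSO control viability so 100% = untreated growth.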

IC50 (second compound 0.00316 µM): > 10 µM
IC50 (second compound 0.01 µM): > 10 µM
IC50 (second compound 0.0316 µM): > 10 µM
IC50 (second compound 0.1 µM): 3.73 µM
IC50 (second compound 0.316 µM): 0.0817 µM
IC50 (second compound 1 µM): < 0.0316 µM
Compound: C#Cc1c(F)ccc2cc(O)cc(-c3ncc4c(N5CC6CCC(C5)N6)nc(OCC56CCCN5CC(F)C6)nc4c3F)c12 (centres undefined) + CC(Nc1ccc2c(c1)OCCn1cc(N3C(=O)OCC3C(F)F)nc1-2)C(N)=O
viability, T/C [1]: 91.8%
viability, T/C [2]: 72.8%
viability, T/C [3]: 76.1%
viability, T/C [4]: 82.2%
viability, T/C [5]: 72%
viability, T/C [6]: 50.7%
viability, T/C [7]: 83.7%
viability, T/C [8]: 73.6%
viability, T/C [9]: 78.6%
viability, T/C [10]: 71%
viability, T/C [11]: 75.6%
viability, T/C [12]: 59.5%
viability, T/C [13]: 74.6%
viability, T/C [14]: 67.4%
viability, T/C [15]: 68.9%
viability, T/C [16]: 58.8%
viability, T/C [17]: 56%
viability, T/C [18]: 56.1%
viability, T/C [19]: 62.9%
viability, T/C [20]: 56.3%
viability, T/C [21]: 61.9%
viability, T/C [22]: 61.1%
viability, T/C [23]: 49.3%
viability, T/C [24]: 38.9%
viability, T/C [25]: 56%
viability, T/C [26]: 45.9%
viability, T/C [27]: 46.7%
viability, T/C [28]: 38%
viability, T/C [29]: 39.4%
viability, T/C [30]: 32.6%
viability, T/C [31]: 46.1%
viability, T/C [32]: 38.7%
viability, T/C [33]: 45.1%
viability, T/C [34]: 36.6%
viability, T/C [35]: 33.2%
viability, T/C [36]: 26.6%

IC50 (second compound 0.00316 µM): > 10 µM
IC50 (second compound 0.01 µM): > 10 µM
IC50 (second compound 0.0316 µM): > 10 µM
IC50 (second compound 0.1 µM): > 10 µM
IC50 (second compound 0.316 µM): > 10 µM
IC50 (second compound 1 µM): < 0.0316 µM
Compound: C=CC(=O)N1CCN(c2nc(=O)n(-c3c(C)ccnc3C(C)C)c3nc(-c4c(O)cccc4F)c(F)cc23)C(C)C1 (centres undefined) + CC(Nc1ccc2c(c1)OCCn1cc(N3C(=O)OCC3C(F)F)nc1-2)C(N)=O
viability, T/C [1]: 104%
viability, T/C [2]: 87.8%
viability, T/C [3]: 105%
viability, T/C [4]: 105%
viability, T/C [5]: 115%
viability, T/C [6]: 95.9%
viability, T/C [7]: 95.3%
viability, T/C [8]: 90%
viability, T/C [9]: 117%
viability, T/C [10]: 86.8%
viability, T/C [11]: 104%
viability, T/C [12]: 89.7%
viability, T/C [13]: 79.2%
viability, T/C [14]: 78.6%
viability, T/C [15]: 104%
viability, T/C [16]: 88.4%
viability, T/C [17]: 100%
viability, T/C [18]: 78.3%
viability, T/C [19]: 76.1%
viability, T/C [20]: 62.8%
viability, T/C [21]: 76.9%
viability, T/C [22]: 76.3%
viability, T/C [23]: 81%
viability, T/C [24]: 94.6%
viability, T/C [25]: 63.5%
viability, T/C [26]: 60.6%
viability, T/C [27]: 59.5%
viability, T/C [28]: 56.3%
viability, T/C [29]: 62.2%
viability, T/C [30]: 67.6%
viability, T/C [31]: 45.3%
viability, T/C [32]: 53%
viability, T/C [33]: 53.3%
viability, T/C [34]: 41.6%
viability, T/C [35]: 57%
viability, T/C [36]: 47.7%
